Results as given in patent US20240226074A1, “CELL-OF-ORIGIN TARGETED DRUG REPURPOSING FOR TRIPLE-NEGATIVE AND INFLAMMATORY BREAST CARCINOMA WITH HDAC AND HSP90 INHIBITORS COMBINED WITH NICLOSAMIDE” (priority 2022, published 2024).

Tests used:
SUM149 = experiment: WST cell proliferation assay, SUM149 cells; type: cell-based
SUM190 = experiment: WST cell proliferation assay, SUM190 cells; type: cell-based
[1] = cited from earlier work; for peak serum concentrations achieved in different clinical trials: human, in vivo; for Cmax: peak serum concentration, clinical trials, read-out: Phase I-II Cmax
IBC03 = experiment: WST cell proliferation assay, IBC03 cells; type: cell-based
IBC02 = experiment: WST cell proliferation assay, IBC02 cells; type: cell-based
KPL4 = experiment: WST cell proliferation assay, KPL4 cells; type: cell-based
HDAC1 = HDAC1 (Homo sapiens, UniProt Q13547); settings: previously shown [37]; cited from earlier work
HDAC1, sequence (Q13547 whole entry): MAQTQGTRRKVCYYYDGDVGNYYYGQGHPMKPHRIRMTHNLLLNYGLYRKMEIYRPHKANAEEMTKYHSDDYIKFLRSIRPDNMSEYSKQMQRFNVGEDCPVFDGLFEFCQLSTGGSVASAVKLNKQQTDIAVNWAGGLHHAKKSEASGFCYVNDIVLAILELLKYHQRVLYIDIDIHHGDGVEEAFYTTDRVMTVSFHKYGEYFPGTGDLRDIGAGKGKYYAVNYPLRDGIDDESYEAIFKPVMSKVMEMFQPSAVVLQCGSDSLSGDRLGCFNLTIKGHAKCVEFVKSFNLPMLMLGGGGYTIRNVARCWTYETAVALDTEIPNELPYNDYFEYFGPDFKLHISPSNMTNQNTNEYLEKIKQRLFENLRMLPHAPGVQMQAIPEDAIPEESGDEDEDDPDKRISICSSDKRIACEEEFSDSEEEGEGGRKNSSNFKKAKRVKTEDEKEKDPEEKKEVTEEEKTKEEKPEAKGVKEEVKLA

[2] = at clinically recommended doses; cited from earlier work
HCC1913 = experiment: WST cell proliferation assay, HCC1913 cells; settings: 100 nM, 7 days
Procedure: (§1) The inhibition of cell proliferation by E, N, T and ENT is measured by WST assay.

MFM223 = experiment: WST cell proliferation assay, MFM223 cells; settings: 100 nM, 7 days
Procedure: as §1

[3] = single drug 500 nM, Belinostat panel
[4] = single drug 1000 nM, Belinostat panel
[5] = single drug 100 nM, Entinostat panel (upper part of Table 6)
[6] = single drug 150 nM, Entinostat panel
[7] = single drug 100 nM, Belinostat panel
[8] = single drug 200 nM, Belinostat panel
[9] = single drug 200 nM, Entinostat panel

Structure (SMILES) | peak serum concentrations achieved in different clinical trials [1] | Cmax [1] | Survival of inflammatory breast cancer cells (percent viability vs DMSO) (SUM149; [5]) | Survival of inflammatory breast cancer cells (percent viability vs DMSO) (SUM190; [5]) | Survival of inflammatory breast cancer cells (percent viability vs DMSO) (IBC03; [5]) | Survival of inflammatory breast cancer cells (percent viability vs DMSO) (IBC02; [5]) | Survival of inflammatory breast cancer cells (percent viability vs DMSO) (KPL4; [5]) | Survival of inflammatory breast cancer cells (percent viability vs DMSO) (SUM149; [7]) | Survival of inflammatory breast cancer cells (percent viability vs DMSO) (SUM190; [7]) | Survival of inflammatory breast cancer cells (percent viability vs DMSO) (IBC03; [7]) | Survival of inflammatory breast cancer cells (percent viability vs DMSO) (IBC02; [7]) | Survival of inflammatory breast cancer cells (percent viability vs DMSO) (KPL4; [7]) | side effects [2] | also measured
O=C(/C=C/c1cccc(S(=O)(=O)Nc2ccccc2)c1)NO [Belinostat] | 200 µM | 200 µM | – | – | – | – | – | – | – | – | – | – | – | Survival of inflammatory breast cancer cells (percent viability vs DMSO) (SUM149; [3]): 71; Survival of inflammatory breast cancer cells (percent viability vs DMSO) (SUM149; [4]): 21; Survival of inflammatory breast cancer cells (percent viability vs DMSO) (SUM190; [3]): 95; Survival of inflammatory breast cancer cells (percent viability vs DMSO) (SUM190; [4]): 107; Survival of inflammatory breast cancer cells (percent viability vs DMSO) (IBC03; [3]): 91; Survival of inflammatory breast cancer cells (percent viability vs DMSO) (IBC03; [4]): 45; Survival of inflammatory breast cancer cells (percent viability vs DMSO) (IBC02; single drug 500 nM, Belinostat panel (lower part of Table 6)): 14; Survival of inflammatory breast cancer cells (percent viability vs DMSO) (IBC02; [4]): 0; Survival of inflammatory breast cancer cells (percent viability vs DMSO) (KPL4; [3]): 91; Survival of inflammatory breast cancer cells (percent viability vs DMSO) (KPL4; [4]): 23
Nc1ccccc1NC(=O)c1ccc(CNC(=O)OCc2cccnc2)cc1 [Entinostat] | – | – | 99 | 159 | 61 | 21 | 45 | – | – | – | – | – | – | Survival of inflammatory breast cancer cells (percent viability vs DMSO) (SUM149; [6]): 102; Survival of inflammatory breast cancer cells (percent viability vs DMSO) (SUM190; [6]): 223; Survival of inflammatory breast cancer cells (percent viability vs DMSO) (IBC03; [6]): 35; Survival of inflammatory breast cancer cells (percent viability vs DMSO) (IBC02; [6]): 12; Survival of inflammatory breast cancer cells (percent viability vs DMSO) (KPL4; [6]): 20; inhibition of HDAC1 (HDAC1): inhibits
O=C(Nc1ccc([N+](=O)[O-])cc1Cl)c1cc(Cl)ccc1O [Niclosamide] | 2 µM | 2 µM | 113 | 135 | 46 | 20 | 91 | 74 | 133 | 35 | 17 | 104 | itching, drowsiness, dizziness, and skin rash | sensitivity of cell line (FIG. 2) (HCC1913): exceptional sensitivity; sensitivity of cell line (FIG. 2) (MFM223): exceptional sensitivity
CCc1cc(C(N)=O)ccc1-n1nc(C(C)C)c2c(-n3cnc(-c4cnn(C)c4)c3)ccnc21 [Pimitespib] | 7 µM | 7 µM | 115 | 114 | 89 | 107 | 89 | 111 | 112 | 89 | 114 | 102 | diarrhea, decreased appetite, malaise, renal impairment, and anemia | Survival of inflammatory breast cancer cells (percent viability vs DMSO) (SUM149; [8]): 158; Survival of inflammatory breast cancer cells (percent viability vs DMSO) (SUM149; [9]): 172; Survival of inflammatory breast cancer cells (percent viability vs DMSO) (SUM190; [8]): 100; Survival of inflammatory breast cancer cells (percent viability vs DMSO) (SUM190; [9]): 102; Survival of inflammatory breast cancer cells (percent viability vs DMSO) (IBC03; [8]): 81; Survival of inflammatory breast cancer cells (percent viability vs DMSO) (IBC03; [9]): 81; Survival of inflammatory breast cancer cells (percent viability vs DMSO) (IBC02; [8]): 105; Survival of inflammatory breast cancer cells (percent viability vs DMSO) (IBC02; [9]): 114; Survival of inflammatory breast cancer cells (percent viability vs DMSO) (KPL4; [8]): 136; Survival of inflammatory breast cancer cells (percent viability vs DMSO) (KPL4; [9]): 118
O=C(CCCCCCC(=O)Nc1ccccc1)NO [Vorinostat] | – | 40 µM | – | – | – | – | – | – | – | – | – | – | – | –
